Measured values reported in patent US8592367B2, “Nodule specific medicago peptides having antimicrobial activity and pharmaceutical compositions containing the same” (priority 2009, dated 2013).

Tests used:
[1] = test system: Pseudomonas syringae pv tomato DC3000; assay: CFU determination, broad spectrum activity; type: cell-based; settings: 50 μg/ml, Pseudomonas syringae pv tomato DC3000, untreated 10^7
[2] = test system: Arabidopsis (ecotype: wassilewskiya); assay: Arabidopsis germination and seedling growth; settings: 50 μg/ml=42 μM
[3] = test system: Bacillus subtilis; assay: CFU determination, broad spectrum activity; type: cell-based; settings: 50 μg/ml, untreated 10^6
[4] = test system: Sinorhizobium meliloti AK631; assay: PI staining of Sinorhizobium meliloti; settings: 50 μg/ml, Sinorhizobium meliloti (AK631)
[5] = test system: Clavibacter michigense; assay: CFU determination, broad spectrum activity; type: cell-based; settings: 50 μg/ml, untreated 10^9
[6] = test system: Pseudomonas syringae pv tomato DC3000; assay: PI staining, broad spectrum activity; type: cell-based; settings: 50 μg/ml
[7] = test system: Pseudomonas aeruginosa; assay: CFU determination, broad spectrum activity; type: cell-based; settings: 50 μg/ml, Pseudomonas aeruginosa, untreated 10^7
[8] = test system: Curtobacterium, flaccumfaciens; assay: CFU determination, broad spectrum activity; type: cell-based; settings: 50 μg/ml, untreated 10^9
[9] = test system: Clavibacter michigense; assay: PI staining, broad spectrum activity; type: cell-based; settings: 50 μg/ml
[10] = test system: Sinorhizobium meliloti AK631; assay: CFU determination of Sinorhizobium meliloti; settings: 50 μg/ml
[11] = test system: Curtobacterium, flaccumfaciens; assay: PI staining, broad spectrum activity; type: cell-based; settings: 50 μg/ml
[12] = test system: Xanthomonas 2880; assay: CFU determination, broad spectrum activity; type: cell-based; settings: 50 μg/ml, Xanthomonas 2880, untreated 10^7
[13] = test system: Xanthomonas 2880; assay: PI staining, broad spectrum activity; type: cell-based; settings: 50 μg/ml
[14] = test system: Staphylococcus aureus; assay: PI staining, broad spectrum activity; type: cell-based; settings: 50 μg/ml
[15] = test system: Staphylococcus aureus; assay: CFU determination, broad spectrum activity; type: cell-based; settings: 50 μg/ml, untreated 10^6
[16] = test system: Pseudomonas aeruginosa; assay: PI staining, broad spectrum activity; type: cell-based; settings: 50 μg/ml
[17] = test system: Bacillus subtilis; assay: PI staining, broad spectrum activity; type: cell-based; settings: 50 μg/ml

For Polymyxin B [reference compound], the CFU [1] was “CFU:0”, the “effect on plant growth” value [2] was “inhibits growth” and the CFU [3] was “CFU: 10^6”. For the same substance, the PI [4] was “PI: 70%”, the CFU [5] was “CFU: 0” and the PI [6] was “PI: 95%”. For the same substance, the CFU [7] was “CFU: 0”, the CFU [8] was “CFU: 0” and the PI [9] was “PI: 60%”. For the same substance, the CFU % ([10]; 1 hr) was 0%, the “CFU (colony/ml)” value ([10]; 1 hr) was 0 colony/ml and the “CFU determination (colony formation)” value ([10]; 3 hours, 2-3×10^6 bacteria, FIG. 2B) was “none formed colony”. The CFU ([10]; Sinorhizobium meliloti (AK631), untreated 10^7) was “CFU: 10^5”, the PI [11] was “PI: 60%” and the CFU [12] was “CFU: 0”. The PI [13] was “PI: 100%”, the PI [14] was “PI: 75%” and the CFU [15] was “CFU: 10^6”. For the same substance, the PI [16] was “PI: 50%” and the PI [17] was “PI: 60%”.
